According to paper PMC6264741, “Chemical Constituents and Biological Studies of the Leaves of Grevillea robusta” (Molecules, 2011):
Like-named read-outs stand apart in the source and are kept apart here. Numbered stars: 1 amine (or outer) side, 2 acyl side, 3 side chain; on linkers, the order of the positions; unused ones are H or OH. Bridge positions count the residues as written; N and C are the ends. Square brackets hold non-standard residues; d marks the D form. Peptide text beside a SMILES is read from it. I, II: the chains in the order shown. Actinocin(9to1) = Cc1c2oc3c(C)ccc(C(=O)[*:1])c3nc-2c(C(=O)[*:2])c(N)c1=O; NMeV = CN[C@H](C(=O)O)C(C)C; Sar = CNCC(=O)O

Legend:
[1] = test system: MCF-7 human breast tumor cell line; test: Cytotoxicity assay, MCF-7; format: cell-based; conditions: MCF7, mean ± SD (n = 3–8)
Experimental: (§1) Compounds 1−8, 11−18, 20, and 21 were subjected to cytotoxic evaluation. The clinically applied anticancer agent, actinomycin D, was used as a positive control for the cytotoxicity assays.
(§2) The cytotoxicity assay was carried out according to procedures that have been previously described in the literature.

[2] = test system: SF-268 human central nervous system tumor cell line; test: Cytotoxicity assay, SF-268; format: cell-based; conditions: mean ± SD (n = 3–8)
Experimental: as §1, §2

[3] = test system: NCI-H460 human lung tumor cell line; test: Cytotoxicity assay, NCI-H460; format: cell-based; conditions: mean ± SD (n = 3–8)
Experimental: as §1, §2

[4] = DPPH free radical scavenging activity assay; parameters: DPPH inhibition activity (Inhibition %): dose or concentration left out as unconfirmed; conditions: mean ± S.E.M (n = 3); for IC50: 0.1 mM DPPH in ethanol, 30 min, 517 nm, read-out: DPPH inhibition activity IC50
Experimental: The free radical scavenging activity of compounds 1, 4, 5, 7, 8, 11−18, and 20 was measured with DPPH^• using the method of Chiu et al.. Briefly, 0.1 mM solution of DPPH^• in ethanol was prepared, and sample (20 μL) was added. The sample was thoroughly mixed and kept in the dark for 30 min. The absorbance was measured at 517 nm on a Quant universal microplate spectrophotometer. α-Tocopherol (Sigma Chemical Co.) was used as a standard agent. A lower absorbance of the reaction mixture indicated a higher free radical scavenging activity. The sample concentration that was used to provide the IC50 data was calculated from a graph plotting inhibition percentage against sample concentration. Tests were performed in triplicate.

[5] = test system: SF-268 human central nervous system tumor cell line; parameters: method as in PMID 20704331; conditions: positive control; cited from earlier work
[6] = test system: MCF-7 human breast tumor cell line; parameters: method as in PMID 20704331; conditions: positive control; cited from earlier work
[7] = test system: NCI-H460 human lung tumor cell line; parameters: method as in PMID 20704331; conditions: positive control; cited from earlier work

CCCCCCCCCCCCCCC[C@H]1CC(=O)C[C@@H](O)C1 (relative stereo) [Compound 2, cis-3-hydroxy-5-pentadecylcyclohexanone]
IC50 [1]: 26.7 ± 1.9 µM | melting point: 62 to 64 °C | IC50 [2]: 20.5 ± 0.6 µM | IC50 [3]: 42.6 ± 3.6 µM

Oc1cc2cc(c1)Oc1c(O)cc(cc1O)CCCCCCCC=CCCCCC2 [Compound 8, dehydrobustol-A]
IC50 [4]: 11.8 ± 0.88 µM

Oc1cc(O)cc(CCCCCCCCCCCCCCc2cc(O)cc(O)c2)c1 [Compound 17, bis-norstriatol]
IC50 [4]: 31.3 ± 0.34 µM

COc1cc(O)cc2c1-c1c(O)cc(cc1O)CCCCCCCCCCCCCC2 [Compound 11, methylgraviphane]
DPPH inhibition activity (Inhibition %) [4]: (28.21 ± 0.23) %

Oc1cc2cc(c1)Oc1c(O)cc(cc1O)[C@H](O)CCCCCCCCCCCCC2 [Compound 5, gravicycle]
IC50 [4]: 25.7 ± 0.32 µM

COc1cc(O)cc(CCCCCCC/C=C/CCCCCc2cc(O)cc(O)c2)c1 [Compound 16, dehydrobisgravillol]
IC50 [4]: 28.9 ± 0.67 µM

COc1cc(O)cc(CCCCCCCCCCCCCCc2cc(O)cc(O)c2)c1 [Compound 15, bisgravillol]
IC50 [4]: 36.7 ± 0.43 µM

COc1cc(O)cc2c1-c1c(O)cc(cc1O)CCCCCCCC=CCCCCC2 [Compound 12, methyldehydrograviphane]
IC50 [4]: 15.7 ± 0.31 µM

Cc1c(C)c2c(c(C)c1O)CC[C@@](C)(CCC[C@H](C)CCC[C@H](C)CCCC(C)C)O2 [α-tocopherol, reference compound]
IC50 [4]: 3.1 ± 0.05 µM

COC(=O)C=Cc1cc(O)ccc1O [Compound 4, methyl 2,5-dihydroxycinnamate]
IC50 [1]: > 50 µM | IC50 [4]: 0.53 ± 0.09 µM | IC50 [2]: > 50 µM | IC50 [3]: > 50 µM

COC(=O)/C=C/C1(O)C=CC(=O)C=C1 [Compound 1, 4-hydroxy-4-(3-methoxycarbonyl)ethenylcyclohexadien-1-one]
IC50 [1]: 15 ± 3 µM | IC50 [4]: 23 ± 0.53 µM | IC50 [2]: 5.9 ± 0.1 µM | IC50 [3]: 10.8 ± 2.3 µM

Oc1cc(O)c2c(c1)CCCCC/C=C/CCCCCCCc1cc(O)c-2c(O)c1 [Compound 14, dehydrograviphane]
IC50 [4]: 2.05 ± 0.22 µM

Oc1cc2cc(c1)Oc1c(O)cc(cc1O)CCCCCCCCCCCCCC2 [Compound 7, robustol]
IC50 [4]: 28.8 ± 0.42 µM

Oc1cc(O)cc(CCCCCC=CCCCCCCCc2cc(O)cc(O)c2)c1 [Compound 18, 5-[14'-(3'',5''-dihydroxyphenyl)-cis-tetradec-6'-en-1'-yl]benzene-1,3-diol]
IC50 [4]: 35.2 ± 0.48 µM

Cc1c2oc3c(C)ccc(C(=O)N[C@@H]4C(=O)N[C@H](C(C)C)C(=O)N5CCC[C@H]5C(=O)N(C)CC(=O)N(C)[C@@H](C(C)C)C(=O)O[C@@H]4C)c3nc-2c(C(=O)N[C@@H]2C(=O)N[C@H](C(C)C)C(=O)N3CCC[C@H]3C(=O)N(C)CC(=O)N(C)[C@@H](C(C)C)C(=O)O[C@@H]2C)c(N)c1=O [Actinomycin D, actinomycin D] (I: T[dV]P[Sar][NMeV] / II: T[dV]P[Sar][NMeV]; ester I:1-I:C, II:1-II:C; linker I:N-II:N via Actinocin(9to1))
IC50 [5]: 0.016 µM | IC50 [6]: 0.103 µM | IC50 [7]: 0.008 µM

CCOc1ccc(O)c(C=CC(=O)OC)c1 [Compound 3, methyl 5-ethoxy-2-hydroxycinnamate]
IC50 [1]: > 50 µM | melting point: 98 to 100 °C | IC50 [2]: > 50 µM | IC50 [3]: > 50 µM

CCCCCCCCCCCCCCCc1cc(O)cc(O)c1 [Compound 20, cis-5-n-pentadecylresorcinol]
DPPH inhibition activity (Inhibition %) [4]: (21.32 ± 0.21) %

Oc1cc(O)c2c(c1)CCCCCCCCCCCCCCc1cc(O)c-2c(O)c1 [Compound 13, graviphane]
IC50 [4]: 3.96 ± 0.55 µM
